Laboratory results published in patent publication US20240069001A1, “ADAPTIVE PERFUSION SYSTEMS AND METHODS FOR DRUG RELEASE TESTING” (The United States of America, as represented by the …, priority 2020, published 2024).

How the values were obtained:
Assay type in all cases: physicochemical
[1] = Adaptive perfusion (AP) IVRT with 100 kD MWCO mPES hollow fiber filter; settings: AP method
Description: The setup 1000 includes a fresh media reservoir 1002, a particulate filtering device 1004 attached to the fresh media tubing (to prevent particulate contamination), two peristaltic pumps (a first pump 1014 for the sample feed and a second pump 1006 for the fresh media), two additional reservoirs (a first reservoir 1008 for the retentate (also called the feed reservoir) and a second reservoir 1038 for the permeate (also called the permeate reservoir)), a pre-conditioned TFF filter (in particular, an HFF 1020, with first port 1022 and second port 1024 connected to a retentate volume and third port 1032 and fourth port 1040 connected to a permeate volume), a backpressure controlling valve 1028, a magnetic stirrer 1010, a stir plate 1012 for mixing the sample with the media, a pressure monitoring system with three pressure sensors (inlet sensor 1018, retentate sensor 1026, and permeate sensor 1034), a mass flow monitoring system (e.g., flow-meter 1036), a data acquisition system (e.g., computer with software), and a fluid circuit 1030 (e.g., tubing) for interconnecting the various components. HFF 1020 was a Spectrum MicroKros®, 100 kD MWCO, modified polyether sulfone (mPES) membrane, 20 cm^2 surface area (Repligen Corporation, CA, USA). An initial drug product sample of a particular concentration and/or volume was manually spiked into the first reservoir 1008 using conduit 1016.
Pure difluprednate solution and difluprednate polysorbate-80 micelles was evaluated using the setup 1000 of FIG. 10. For pure difluprednate solution, 200 μL of difluprednate solution (1 mg/mL in ethanol) was spiked (via conduit 1016) into 40 mL of release media (10 mM pH 7.4 phosphate buffer mixed with ethanol in the ratio of 80:20 v/v) in reservoir 1008 to reach an initial difluprednate concentration of 5 μg/mL. Ethanol was used as a co-solvent to prevent the precipitation of difluprednate in the media. Difluprednate concentrations in the retentate reservoir 1008 and permeate reservoir 1038 were determined in real time using an in-situ fiber optic UV-Vis system (Pion μDiss Profiler™, Billerica, MA). ZIM analysis was performed to remove polysorbate-80 interference by using wavelength within the range of 271-274 nm (exact ZIM wavelength varied between probes). For difluprednate polysorbate-80 micelles, 1 mL of difluprednate polysorbate-80 micelle solution (100 μg/mL in 3.6% w/v polysorbate-80) was spiked (via conduit 1016) into 40 mL of the release media (10 mM pH 7.4 phosphate buffer) in reservoir 1008 to obtain an initial difluprednate concentration of 2.5 μg/mL. Aliquots of retentate and permeate were collected periodically from the retentate reservoir 1008 and from the permeate tubing (between third port 1032 and permeate reservoir 1038), respectively, and subjected to UPLC analysis to determine difluprednate concentration. Appropriate dilution was performed for the retentate aliquots by using acetonitrile prior to UPLC analysis. The study was conducted at ambient room temperature (i.e., 23.5±1.5° C.).
Several TFF hollow fiber filter modules having different MWCO of 30 kD, 100 kD, 300 kD and 500 kD (Spectrum MicroKros®, modified polyether sulfone (mPES) membrane, 20 cm^2 surface area, Repligen Corporation, CA, USA) were screened initially to select an optimal MWCO for the TFF filter for performing the in vitro release studies. 100 kD MWCO was eventually selected considering the range of globule sizes to be evaluated for the nanoemulsions. 200 μL of nanoemulsion was spiked (via conduit 1016) directly into 40 mL of media (10 mM pH 7.4 phosphate buffer) in reservoir 1008 to provide an initial concentration of 2.5 μg/mL for difluprednate. Aliquots of retentate and permeate were collected periodically from the retentate reservoir 1008 and from the permeate tubing (between outlet 1031 and 1038), respectively, and subjected to UPLC analysis to determine difluprednate concentration. […]

[2] = Reverse-dialysis release/diffusion of pure difluprednate solution (USP 2 apparatus, 100 kD MWCO dialysis tubes); settings: pH 7.4 phosphate buffer:ethanol 80:20, 34° C.
Procedure: Release of difluprednate from pure drug solution was studied using a reverse-dialysis setup, where drug was transferred from outside a dialysis device to the inside. As compared to a dialysis configuration, the reverse-dialysis configuration provides an advantage in terms of allowing for better control of dilution and maximum drug concentration gradient across oil/water interface to drive the drug release. Diffusion of difluprednate through dialysis membrane was determined in a USP 2 apparatus setup (Vision Elite 8, Teledyne Hanson Research, with mini-vessels 800) using commercially available dialysis tubes 808 (Float-A-Lyzer G2, 100 kD MWCO, regenerated cellulose, Spectrum Labs, CA, USA), as shown in FIG. 8A. Each dialysis tube 808 was cleaned with 1.0% w/v polysorbate-80 solution in deionized water and subsequently washed thoroughly with deionized water. Dialysis tubes 808, containing about 1 mL of the release media (i.e., 10 mM pH 7.4 phosphate buffer mixed with ethanol in the ratio of 80:20 v/v), were suspended inside the USP 2 mini-vessels 800. Agitation was controlled at 100 rpm and the temperature was maintained at 34° C. Using conduit 806, 1 mL of difluprednate solution (1 mg/mL in ethanol) was spiked directly into the vessel 800, which contained 200 mL release media 802, in order to achieve an initial drug concentration of 5 μg/mL.
(§1) Within dialysis tube 808, difluprednate concentration (e.g., drug that had diffused through the membrane filter of dialysis device 808) was monitored in real time using an in-situ fiber optic probe 804, in particular a fiber optic UV-Vis system (Pion μDiss Profiler™, Billerica, MA). The scanning frequency was once every minute for the first 6 hours, then it switched to once every 5 minutes for the next 18 hours. After first 24 hours, the scanning frequency was changed to once every 10 minutes for the next 40 hours. For the last 104 hours, the scanning frequency was once every 30 min. The total experimental time was 168 hours (7 days). Pure difluprednate solution diluted with release medium at the same concentration of 5 μg/mL was also monitored in parallel as a control to determine any possible change in drug concentration, e.g., due to degradation. Prior to the start of the experiment, UV signals were calibrated using various concentrations of difluprednate standard solutions (0.05, 0.10, 0.50, 1.00, 2.00, 3.00, 4.00, and 6.00 μg/mL). Zero Intercept Method (ZIM) analysis was performed to remove polysorbate-80 interference by using wavelength within the range of 271-274 nm (exact ZIM wavelength varied between probes). Ethanol was used as a co-solvent to prevent the precipitation of difluprednate in the release media.

[3] = Control: pure difluprednate solution diluted with release medium, monitored for degradation; settings: control sample, at 24 hrs; 5 μg/mL in release medium; n=1
Procedure: as §1

## CCCC(=O)O[C@]1(C(=O)COC(C)=O)CC[C@H]2[C@@H]3C[C@H](F)C4=CC(=O)C=C[C@]4(C)[C@@]3(F)[C@@H](O)C[C@@]21C [Pure drug (DFP) solution, Difluprednate]
[1]; permeate (FIG. 12A)
  time to reach 90% of drug release: less than 15 minutes
[1]; Mean ± SD, n = 3
  Permeate Maximum Drug Release: 93.7 ± 5.5%
  Permeate t50: 5.3 ± 0.6 min
[1]; Q = 100*(1 − e^−k*t), Mean ± SD, n = 3, room temperature
  Permeate k* (first-order rate constant): 0.146 ± 0.018 min⁻¹
[1]; Q = 100*e^−k*t, Mean ± SD, n = 3, room temperature
  Retentate k* (first-order rate constant): 0.211 ± 0.056 min⁻¹
[1]; in less than 15 minutes
  difluprednate transferred across the membrane (into the permeate): more than 90%
[2]; 100 kD MWCO
  drug diffused at plateau: about 75%
  time for difluprednate concentration to reach plateau: ~8 h
[2]; 100 kD MWCO, 100 rpm, 5 μg/mL
  time for 50% of difluprednate to diffuse across the dialysis membrane: more than 3 hours
[2]; inside dialysis tube
  time after which decrease in difluprednate concentration was observed (degradation in alkaline media): about 10 hours
[3]
  pure drug remaining in the bulk media: 85%
